Experimental data taken from EP0642787A2, “Cessation of tobacco use” (ELI LILLY AND COMPANY, priority 1993, dated 1995).

Columns and labels:
[1] = system: 5HT1A receptor; experiment: Serotonin syndrome test (antagonism of 8-OH-DPAT-induced signs); format: in vivo, rats; settings: 4 point scale 0-3; for LLR score / lower lip retraction (LLR) score / FBP score / flat body posture (FBP) score: 8-OH-DPAT alone scores 3
Procedure: Adult male rats are placed singly in clear plastic cages for behavioral observations. Preferably, the cages have metal screen lids and fresh sawdust covering the floor. The animals are adapted to the cages for a short period, and then the compounds to be tested are administered at doses and route determined by the experimenter, based on the probable potency of the test compounds. After 15 minutes, each rat is then given a subcutaneous injection of 0.1 mg/kg of 8-hydroxy-2-dipropylaminotetralin (8-OH-DPAT). Fifteen minutes after administration of the 8-OH-DPAT, the animals are evaluated for evidence of the following signs: reciprocal forepaw treading; Straub tail (rigid or corkscrew); lateral head weaving; hind limb abduction; resting tremor, especially of the head and forepaws; lower-lip retraction; and flat-body posture.
Those signs are produced by 8-OH-DPAT, and the administration of 5HT1A antagonists is able to block or greatly attenuate the appearance of the signs.

[2] = system: 5HT1A receptor; experiment: as above; format: in vivo, rats; settings: exception at 1.0 or 10 mg/kg s.c. (dose not specified); 4 point scale 0-3
[3] = target: 5HT1A receptor (Homo sapiens, UniProt P08908); settings: partial agonist; cited from earlier work
Sequence of 5HT1A receptor (Homo sapiens, UniProt P08908) (P08908 whole entry): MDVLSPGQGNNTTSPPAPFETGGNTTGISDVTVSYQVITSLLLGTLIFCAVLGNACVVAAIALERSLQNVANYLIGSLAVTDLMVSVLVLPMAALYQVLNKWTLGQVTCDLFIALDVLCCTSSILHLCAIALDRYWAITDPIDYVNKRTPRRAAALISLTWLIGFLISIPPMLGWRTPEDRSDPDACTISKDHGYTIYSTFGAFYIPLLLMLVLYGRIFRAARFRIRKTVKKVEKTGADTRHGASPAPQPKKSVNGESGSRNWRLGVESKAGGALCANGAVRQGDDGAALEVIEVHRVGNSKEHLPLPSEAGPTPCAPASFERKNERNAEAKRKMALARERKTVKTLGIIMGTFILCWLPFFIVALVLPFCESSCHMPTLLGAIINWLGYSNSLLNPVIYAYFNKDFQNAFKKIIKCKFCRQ

[4] = 3 mg/kg test compound s.c., then 8-OH-DPAT 0.1 mg/kg s.c.

| Structure (SMILES) | LLR score ([1]; 1 mg/kg test compound s.c.) | lower lip retraction (LLR) score [1, 4] | LLR score ([1]; 10 mg/kg test compound s.c.) | FBP score ([1]; 10 mg/kg test compound s.c.) | other results |
| --- | --- | --- | --- | --- | --- |
| OC(CNC1CCCCCC1)COc1cccc2[nH]ccc12 (stereo not shown) [1-(4-indolyloxy)-3-cycloheptylamino-2-propanol] | ≤ 1.75 | ≤ 1.75 | 0 | – | FBP score ([1]; doses of 1 mg/kg and above s.c.): below 1 |
| O=C(O)C(=O)O.OC(CNCCCCc1ccccc1)COc1cccc2[nH]ccc12 (stereo not shown) [1-(4-indolyloxy)-3-(4-phenylbutylamino)-2-propanol, oxalate salt] | – | – | – | 1.25 | peak LLR score ([1]; 10 mg/kg test compound s.c., score quickly declined from its peak): 2 |
| O=C(O)CCC(=O)O.O[C@@H](CNC1CCCCC1)COc1cccc2[nH]ccc12 [(S)-(-)-1-(4-indolyloxy)-3-cyclohexylamino-2-propanol, butanedioate salt] | – | completely abolished | – | – | flat body posture (FBP) score ([1]; 0.3 mg/kg test compound s.c.): below 2; lower lip retraction (LLR) score ([1]; 0.3 mg/kg test compound s.c.): below 2; flat body posture (FBP) score [1, 4]: completely abolished |
| OC(CN[C@@H]1C[C@H]2CC[C@@H]1C2)COc1cccc2[nH]ccc12 (relative stereo) [(exo)-1-(4-indolyloxy)-3-norbornylamino-2-propanol] | ≤ 1 | – | ≤ 1 | ≤ 0.5 | LLR score at 20 minutes after administration of 8-OH-DPAT [2]: 1.25; FBP score ([1]; 1.0 mg/kg test compound s.c.): ≤ 0.5 |
| O=C1CC2(CCCC2)CC(=O)N1CCCCN1CCN(c2ncccn2)CC1 [Buspirone] | – | – | – | – | antagonistic activity at the 5HT1A receptor [3]: about 30% |
